According to patent publication US9126989B2, “Compound and methods for treating long QT syndrome” (Gilead Sciences, Inc., priority 2013, dated 2015):
Entries after “also recorded” stand apart in the source; their conditions may differ.

Assays:
[1] = target: T1, cardiac late sodium current (INa) (Homo sapiens, UniProt Q14524); conditions: see US 2013/0012492; cited from earlier work
[2] = test system: model of long QT syndrome-3 (LQT3); assay: Model of LQT-3: action potential duration and beat-to-beat variability
[3] = PK after single oral dose in patients with LQT-3; format: in vivo, human
Source text: This is similar to the PK profile of Compound 1 in healthy volunteers.

[4] = test system: cytochrome P450 (CYP) enzymes; assay: Cytochrome P450 inhibition; format: in vitro ADME
patients with LQT3 = assay: Phase 1 clinical study in patients with LQT3 (QTc, ECHO, tolerability); format: in vivo, human; conditions: for Tolerability: Phase 1; for Change in QTc from baseline: all dose levels (10-60 mg single, multiple dose cohort)
Experimental: In an ongoing Phase 1, effect of oral Compound (I) on the QTc interval in subjects with LQT3 was evaluated. Subjects with LQT3 identified from the LQTS registry with proven mutations in the cardiac sodium channel and a QTc >460 msec will be enrolled. Four sequential single dose cohorts and 1 multiple dose cohort were enrolled and received a single dose of Compound (I) (Cohort 1: 10 mg; Cohort 2: 20 mg; Cohort 3: 30 mg; Cohort-4: 60 mg) or multiple doses of Compound (I) (Cohort 5: Day 1—20 mg, Day 2—40 mg, Days 3-7—6 mg once daily).
Ten subjects were enrolled. Among these 10 subjects, 3 subjects received single oral dose of Compound (I), 5 subjects received Compound (I) at 2 different dose periods, and 2 subjects received Compound (I) at 3 different dose periods. […] Changes in QTc interval from baseline (Day −1 for Cohorts 1-4; average of Day −2 and Day −1 for Cohort 5) were analyzed in 2 different ways: 1) changes in average daytime QTc during 12 hours postdose (QTc interval AUC0-12/12) and 2) maximal time-matched QTc changes within 12 hours postdose. […] In the multiple dose cohort (shown in FIG. 5-6), the effect of Compound (I) on QTc shortening was dose-dependent with a larger QTc shortening after 40 mg on Day 2 compared to 20 mg on Day 1. More importantly, the QTc shortening was sustained during the maintenance doses of 6 mg from Days 3-7.
In addition, effect of Compound (I) on cardiac function was assessed by ECHO. For the single dose cohorts, echocardiography (ECHO) was performed at baseline (Day −1) and at 3 and 6 hours after the single oral dose of Compound (I) on Day 1. For the multiple dose cohort (Cohort 5), ECHO was performed at baseline (Day −1), at 3 and 6 hours after the single oral dose of Compound (I) on Day 1, and at 3 hours after dose on Day 4 and Day 7.

[5] = test system: rabbit isolated wedge preparation; assay: Rabbit isolated left ventricular wedge preparation, E-4031 model of LQT-2; conditions: 60 nM E-4031, 300 nM Compound 1, cycle lengths 500, 1000 and 2000 msec
Experimental: E-4031 is an inhibitor of IKr.
Rabbit isolated left ventricular wedge was prepared as previously described (Yan et al, 1996, 2009). Briefly, the chest was opened via a left thoracotomy, and the heart was excised, placed in a cardioplegic solution consisting of cold (4° C.) Tyrode's solution containing 20 mmol/L […], and transported to a dissection tray. Transmural wedges with dimensions of approximately 1×1×0.8 or 0.8×0.8×0.4 cm^3 were dissected from the left ventricle. The tissue was cannulated via a small (diameter, ≈100 μm) branch of the left anterior descending artery or another coronary artery and perfused with cardioplegic solution. The total period of time from excision of the heart to cannulation and perfusion of the artery was less than 4 minutes. Unperfused tissue was carefully removed with a razor blade. The preparation was then placed in a tissue bath and arterially perfused with Tyrode's solution of the following composition (mmol/L): NaCl 129, KCl 4, NaH2PO4 0.9, NaHCO3 20, Ca 1.8, MgSO4 0.5, glucose 5.5, and insulin 1 U/L, buffered with 95% O2/5% CO2 (36±1° C.). The perfusate was delivered to the artery by a roller pump (Cole Panner Instrument Co). Perfusion pressure was monitored with a pressure transducer (World Precision Instruments, Inc) and maintained between 40 and 50 mm Hg by adjustment of the perfusion flow rate. The preparations remained immersed in the arterial perfusate, which was allowed to rise to a level 2 to 3 mm above the tissue surface (36±1° C.).

rabbit isolated heart = assay: Rabbit isolated heart, E-4031 model of LQT-2 and drug-induced QT prolongation
Source text: E-4031 is an inhibitor of IKr. […] Hearts were paced at a rate of 1 Hz.
The use of rabbits (New Zealand White adult females, 2-4 kg; Western Oregon Rabbit Company, Philomath, Oreg.) in this investigation conformed to the “Guide for the Care and Use of Laboratory Animals” (NIH publication No. 85-23, revised 1996) and was approved by the Institutional Animal Care and Use Committees of Gilead Sciences. Hearts were isolated and perfused by the method of Langendorff as previously described (Wu et al., 2009). Briefly, the atrioventricular nodal area was thermally ablated to produce heart block, and hearts were paced at a rate of 1 Hz. Monophasic action potentials (MAPs) from the left ventricular epicardium and pseudo 12-lead electrocardiograms (ECGs) were recorded. […] The duration of the MAP at the level at which repolarization is 90% complete (MAPD90) was measured.

P-glycoproteins = P-glycoproteins (Homo sapiens, UniProt P08183); assay: P-glycoprotein inhibition; format: in vitro ADME
[6] = target: T1, cardiac late sodium current (INa); assay: Inhibition of the cardiac late sodium current; format: biochemical
[7] = after single dose administration
[8] = LQT3 patients, listed as Compound (I)

T1 sequence (Q14524 whole entry): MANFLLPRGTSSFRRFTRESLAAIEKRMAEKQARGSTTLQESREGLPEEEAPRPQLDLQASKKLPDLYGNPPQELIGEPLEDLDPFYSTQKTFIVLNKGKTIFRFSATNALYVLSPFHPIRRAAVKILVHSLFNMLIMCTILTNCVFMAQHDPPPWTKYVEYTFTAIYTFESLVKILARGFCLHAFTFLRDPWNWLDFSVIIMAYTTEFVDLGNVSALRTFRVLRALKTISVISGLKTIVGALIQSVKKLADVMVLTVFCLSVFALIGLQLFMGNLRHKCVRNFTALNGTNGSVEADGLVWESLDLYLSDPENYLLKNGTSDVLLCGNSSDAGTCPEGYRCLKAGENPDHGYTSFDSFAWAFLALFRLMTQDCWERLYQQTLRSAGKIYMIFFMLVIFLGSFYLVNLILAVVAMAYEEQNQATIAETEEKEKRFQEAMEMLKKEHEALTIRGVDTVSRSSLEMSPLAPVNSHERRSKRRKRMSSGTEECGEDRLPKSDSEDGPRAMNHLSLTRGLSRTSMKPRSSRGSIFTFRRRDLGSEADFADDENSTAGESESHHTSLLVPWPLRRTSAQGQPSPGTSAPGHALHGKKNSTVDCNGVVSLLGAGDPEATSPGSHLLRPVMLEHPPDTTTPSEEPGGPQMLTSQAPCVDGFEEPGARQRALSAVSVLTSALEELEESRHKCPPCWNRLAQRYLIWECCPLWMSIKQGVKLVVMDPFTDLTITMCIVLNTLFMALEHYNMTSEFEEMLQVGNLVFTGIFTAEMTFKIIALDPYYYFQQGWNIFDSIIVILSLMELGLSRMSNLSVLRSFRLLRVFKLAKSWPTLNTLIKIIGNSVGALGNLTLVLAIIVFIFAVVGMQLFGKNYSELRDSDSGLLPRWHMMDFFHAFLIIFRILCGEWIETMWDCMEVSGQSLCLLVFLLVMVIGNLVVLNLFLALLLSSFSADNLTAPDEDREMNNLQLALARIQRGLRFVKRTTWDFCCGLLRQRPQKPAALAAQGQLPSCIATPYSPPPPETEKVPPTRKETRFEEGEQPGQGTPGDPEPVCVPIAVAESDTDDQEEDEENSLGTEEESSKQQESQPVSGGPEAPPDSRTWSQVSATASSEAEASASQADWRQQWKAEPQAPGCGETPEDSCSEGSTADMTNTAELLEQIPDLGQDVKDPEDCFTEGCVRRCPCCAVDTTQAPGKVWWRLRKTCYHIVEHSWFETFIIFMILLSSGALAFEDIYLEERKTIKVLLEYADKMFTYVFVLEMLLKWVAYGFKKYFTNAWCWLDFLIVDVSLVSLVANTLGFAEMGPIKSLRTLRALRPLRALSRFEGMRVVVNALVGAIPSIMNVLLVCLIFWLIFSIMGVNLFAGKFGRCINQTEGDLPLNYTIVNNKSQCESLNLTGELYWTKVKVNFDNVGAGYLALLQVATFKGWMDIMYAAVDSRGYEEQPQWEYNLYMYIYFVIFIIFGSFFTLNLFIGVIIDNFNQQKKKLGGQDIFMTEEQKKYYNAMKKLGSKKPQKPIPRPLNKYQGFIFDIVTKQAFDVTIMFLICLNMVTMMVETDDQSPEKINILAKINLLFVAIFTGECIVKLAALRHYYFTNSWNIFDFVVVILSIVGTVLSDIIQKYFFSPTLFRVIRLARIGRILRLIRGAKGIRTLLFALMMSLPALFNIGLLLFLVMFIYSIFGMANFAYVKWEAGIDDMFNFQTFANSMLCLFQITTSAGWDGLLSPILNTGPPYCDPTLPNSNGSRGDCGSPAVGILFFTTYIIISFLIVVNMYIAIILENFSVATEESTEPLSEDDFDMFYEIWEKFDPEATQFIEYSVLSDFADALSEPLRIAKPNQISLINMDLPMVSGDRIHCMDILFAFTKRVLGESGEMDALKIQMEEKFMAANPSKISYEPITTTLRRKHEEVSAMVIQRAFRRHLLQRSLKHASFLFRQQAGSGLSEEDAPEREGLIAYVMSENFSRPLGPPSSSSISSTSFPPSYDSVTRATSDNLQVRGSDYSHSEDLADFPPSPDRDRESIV
P-glycoproteins, sequence (P08183 whole entry): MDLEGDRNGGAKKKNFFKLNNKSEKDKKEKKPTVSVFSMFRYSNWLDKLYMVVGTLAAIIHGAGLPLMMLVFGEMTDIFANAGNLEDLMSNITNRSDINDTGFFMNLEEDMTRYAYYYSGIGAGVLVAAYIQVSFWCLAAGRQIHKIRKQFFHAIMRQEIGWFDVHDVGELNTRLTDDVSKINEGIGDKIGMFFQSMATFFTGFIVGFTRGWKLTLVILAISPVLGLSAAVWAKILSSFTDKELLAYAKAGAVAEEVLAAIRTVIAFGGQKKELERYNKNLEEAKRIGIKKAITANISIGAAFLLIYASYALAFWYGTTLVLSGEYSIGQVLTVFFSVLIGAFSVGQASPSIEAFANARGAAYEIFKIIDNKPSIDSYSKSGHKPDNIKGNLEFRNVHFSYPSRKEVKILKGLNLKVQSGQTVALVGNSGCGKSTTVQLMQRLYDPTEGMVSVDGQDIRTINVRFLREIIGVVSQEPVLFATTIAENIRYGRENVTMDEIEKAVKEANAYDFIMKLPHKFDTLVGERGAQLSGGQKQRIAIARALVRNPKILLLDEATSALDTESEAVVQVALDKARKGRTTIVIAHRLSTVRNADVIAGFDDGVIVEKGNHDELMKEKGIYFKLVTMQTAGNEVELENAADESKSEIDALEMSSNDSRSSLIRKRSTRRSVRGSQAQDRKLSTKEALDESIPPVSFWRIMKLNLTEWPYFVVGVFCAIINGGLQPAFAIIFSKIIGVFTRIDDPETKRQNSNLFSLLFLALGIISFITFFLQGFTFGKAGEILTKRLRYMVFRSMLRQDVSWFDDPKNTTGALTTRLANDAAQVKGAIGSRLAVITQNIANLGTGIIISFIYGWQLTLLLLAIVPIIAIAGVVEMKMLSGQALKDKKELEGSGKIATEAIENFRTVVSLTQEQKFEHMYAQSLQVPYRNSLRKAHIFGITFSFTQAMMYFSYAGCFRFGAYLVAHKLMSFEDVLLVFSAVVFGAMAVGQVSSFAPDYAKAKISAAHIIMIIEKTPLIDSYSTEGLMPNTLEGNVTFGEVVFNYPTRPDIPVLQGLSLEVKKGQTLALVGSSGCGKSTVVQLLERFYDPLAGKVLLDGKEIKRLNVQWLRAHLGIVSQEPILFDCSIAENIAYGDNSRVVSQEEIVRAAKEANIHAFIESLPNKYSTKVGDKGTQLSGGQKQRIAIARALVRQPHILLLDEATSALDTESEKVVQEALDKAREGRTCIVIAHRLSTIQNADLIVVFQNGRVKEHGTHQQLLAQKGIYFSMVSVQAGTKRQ

## O=C1c2cc(-c3ccc(OC(F)(F)F)cc3)ccc2OCCN1Cc1ncccn1 [Compound 1, 4-(pyrimidin-2-ylmethyl)-7-(4-(trifluoromethoxy)phenyl)-3,4-dihydrobenzo[f][1,4]oxazepin-5(2H)-one]
[1]
  Late sodium channel inhibition: potent late sodium channel inhibitors
[2]; model of LQT3, FIG. 2
  Beat-to-beat variability: reduction
[2]; model of LQT-3, FIG. 1
  Action potential duration (APD): shortening
[3]; [7]
  Absorption: fast absorption
  Clearance: low clearance
  Decline of concentration: biphasic decline
  Half-life: long half-life
[3]; single oral dose, FIG. 4
  PK profile in LQT3 patients compared with healthy volunteers: similar
[4]
  Inhibition of cytochrome P450 (CYP) enzymes: does not inhibit
Patients with LQT3; 10 mg, three patients with inherited LQT3
  Efficacy (QTc shortening or T-wave morphology): preliminary efficacy
Patients with LQT3; LQT3 patients
  Dependence of QTc shortening on mutations or concomitant use of b-blockers: independent
  Tolerability: well tolerated
  Change in QTc from baseline: changes in QTc from baseline
Patients with LQT3; [8]
  Tolerability: well tolerated; also recorded: well-tolerated
  Change in QTc from baseline: Shortening of QTc was observed at all dose levels; also recorded: shortens QTc interval
Patients with LQT3; LQT3 patients, single and multiple dose cohorts, listed as Compound (I)
  Left ventricular (LV) functions / cardiac function assessed by ECHO: did not affect; also recorded: no effect
Patients with LQT3; human, in vivo
  Treatment of long QT syndrome in humans, specifically LQT3: effective
Patients with LQT3; maintenance doses of 6 mg from Days 3-7
  Persistence of QTc shortening: sustained
Patients with LQT3; multiple dose cohort, 40 mg on Day 2 compared to 20 mg on Day 1
  Dose dependence of QTc shortening: dose-dependent
Patients with LQT3; ten LQT-3 patients, single dose 10 mg, 20 mg, 30 mg or 60 mg
  QTc shortening: 20-100 milliseconds
[5]
  Prolonged action potential duration (APD): shortens
  QT interval: shortens
  Tpeak to Tend (TpTe): shortens
Rabbit isolated heart; 60 nM E-4031, 100 and 300 nM Compound 1, paced at 1 Hz
  Prolonged monophasic action potential (MAP): shortens
Rabbit isolated heart; induced by 60 nM E-4031, paced at 1 Hz
  Torsades de pointes (TdP) ventricular tachyarrhythmia: suppresses
P-glycoproteins
  Inhibition of P-glycoproteins: does not inhibit
[6]
  Inhibition of the cardiac late sodium current (INa): potent and selective inhibitors

## O=C1c2cc(-c3ccc(C(F)(F)F)cc3)ccc2OCCN1Cc1ncccn1 [Compound 2, 4-(pyrimidin-2-ylmethyl)-7-(4-(trifluoromethyl)phenyl)-3,4-dihydrobenzo[f][1,4]oxazepin-5(2H)-one]
[1]
  Late sodium channel inhibition: potent late sodium channel inhibitors
[6]
  Inhibition of the cardiac late sodium current (INa): potent and selective inhibitors
